Measurements from patent publication US20060063143A1, “Immortalized hypothalamic neuronal cell lines” (priority 2002, published 2006).

Legend:
Format in all cases: cell-based, mouse
NPY-17 (N-38) cells = assay: Calcium imaging (Fura2): intracellular calcium response to depolarization by KCl; conditions: KCl 60 mM, NPY-17 cells
Procedure: FIG. 15 illustrates the neurosecretory response of NPY-17 (N 38) cells. The effect of the addition of KCl (60 mM) on intracellular calcium levels ([Ca2+]i) for the cells pictured is shown. Images of cells shown in the two panels on the right were obtained as per Example 5. Shown is a representative experiment from 6 experiments, n=116 cells in total (FIG. 15, left panel);
Since many of the peptides and enzyme present in the individual cell lines are secretory products, one representative cell line, N-38 (Also known as NPY-17), was studied for its response to depolarization by addition of 60 mM KCl. […] NPY-17 neurons were plated in 60 mm plates. Fura-2/AM loaded GT1-7 neurons were continuously monitored by 340/380 ratiometric digital imaging pre (top right panel) and post (lower right panel) stimulation. […]
Ca2+ imaging experiments were performed with Fura2 (Molecular Probes) using an Olympus IX70 inverted epifluorescence microscope, an Ultrapix camera with an EEV CCD37-10-1-019 chip, a monochromator, and a PC computer with Merlin imaging software (Life Science Resources) using standard Fura2 optics and imaging techniques. […] Intracellular free Ca2+ ([Ca2+]i) concentrations calculated using the Grynkiewicz equation, [Ca2+]i=Kd×□×(R−Rmin)/(Rmax−R) (52).

N38 hypothalmic cells = assay: Microarray (Affymetrix oligonucleotide arrays) of TCAP-1 treated cells, genes regulated at 16 hours
Procedure: RNAs isolated from treated and untreated cells were analyzed on oligonucleotide arrays representing 12,884 mouse genes (Affymetrix, http://www.affymetrix.com). Standard filtering (p<0.005) and hierarchical clustering algorithm (average linage method: GeneSpring software—Silicon Genetics) identified significant changes in the expression of 4, 841/12,885 genes with 166 genes showing 1.5 fold down-regulation and 35 genes up-regulation in the TCAP-1-treated cells compared to the untreated cells. […] A G-protein coupled receptor-related signal transduction pathway is indicated by the regulation of genes, CREM, AKAP8, AKAP95 and PDE6A. […] The upregulation in inducible nitric oxide (INOS), a intracellular voltage-gated chloride channel (CLCN3) and the serotonin transporter (SLC6A4) may reflect the down stream actions of cAMP-mediated signal cascade and indicates the potential for TCAP to be involved in neuronal signaling systems. A role in interneuron communication by TCAP is also indicated by the modulation of genes associated with the regulation of vesicle trafficking. Thus, the TCAP responsive cell lines can be used to screen for modulators of neuronal function that affect growth, differentiation and communication.
The change in expression levels is indicated relative to the untreated control cell for the same time period of 16 hours. Values>1.5 fold or <0.70 fold were considered significant.

NPY-17 cells = assay: Leptin responsiveness: proteomic (mass spectrometry) analysis of nuclear extracts; conditions: 10^-7 M leptin, 20 hours, NPY-17 nuclear extracts, preliminary, +/- protein status
Procedure: The NPY-17 cells also express leptin receptors and have been studied for leptin responsiveness using both gene array analysis and proteomic analysis. NPY-17 cells were treated with 10^-7 M leptin (recombinant mouse, Bachem Scientific) for 20 hours. Cells were washed with PBS and harvested through centrifugation. Nuclear extracts were prepared and exposed to mass spectrometry analysis. […] The analysis is not considered quantitative, but initially represents a +/− protein status (i.e. the protein is either present or absent in the control or leptin-treated sample).

[1] = 1 nM TCAP-1, N38 cells, 16 hours post-treatment
[2] = 1 nM TCAP-1, N38 cells, treated vs untreated

## [Cl-].[K+] [KCl]
NPY-17 (N-38) cells
  calcium mobilization: significant increase
NPY-17 (N-38) cells; representative graph
  [Ca2+]i peak value: ~450 nM

## TCAP-1: teneurin C-terminal-associated peptide 1, SEQ ID NO 5 plus amidation signal GRR at C-terminus (QQLLGTGRVQGYDGYFVLSVEQYLELSDSANNIHFMRQSEI; C-terminal GRR amidation signal; Mouse TCAP1)
N38 hypothalmic cells; 1 nM TCAP-1, 16 hours, relative to untreated control, cluster Growth/Differentiation, probe 92325
  Fold change PTK7 (Receptor protein tyrosine kinase): 1.53 fold
N38 hypothalmic cells; 1 nM TCAP-1, 16 hours, relative to untreated control, cluster Growth/Differentiation, probe 94192
  Fold change GDAP10 (Ganglioside induced diff. protein 10): 1.62 fold
N38 hypothalmic cells; 1 nM TCAP-1, 16 hours, relative to untreated control, cluster Growth/Differentiation, probe 94724
  Fold change MMP10 (Matrix metalloproteinase 10): 0.59 fold
N38 hypothalmic cells; 1 nM TCAP-1, 16 hours, relative to untreated control, cluster Growth/Differentiation, probe 97353
  Fold change DLP1/2 (DAB2 interacting protein): 0.68 fold
N38 hypothalmic cells; 1 nM TCAP-1, 16 hours, relative to untreated control, cluster Growth/Differentiation, probe 98466
  Fold change P204 (Interferon activatable protein): 1.85 fold
N38 hypothalmic cells; 1 nM TCAP-1, 16 hours, relative to untreated control, cluster Growth/Differentiation, probe 98530
  Fold change GAS5 (Growth arrest specific transcript): 0.46 fold
N38 hypothalmic cells; 1 nM TCAP-1, 16 hours, relative to untreated control, cluster Growth/Differentiation, probe 99924
  Fold change INI1B (Integrase interacting protein 1B): 0.48 fold
N38 hypothalmic cells; 1 nM TCAP-1, 16 hours, relative to untreated control, cluster Growth/Differentiation, probe 100484
  Fold change MMP1 (Matrix metalloproteinase 1): 0.55 fold
N38 hypothalmic cells; 1 nM TCAP-1, 16 hours, relative to untreated control, cluster Growth/Differentiation, probe 102382
  Fold change MOP3 (Circadian rhythm regulator): 1.57 fold
N38 hypothalmic cells; 1 nM TCAP-1, 16 hours, relative to untreated control, cluster Growth/Differentiation, probe 102627
  Fold change CRD-BP (CRD-binding protein): 0.59 fold
N38 hypothalmic cells; 1 nM TCAP-1, 16 hours, relative to untreated control, cluster Growth/Differentiation, probe 102921
  Fold change CD95 (Fas antigen): 0.61 fold
N38 hypothalmic cells; 1 nM TCAP-1, 16 hours, relative to untreated control, cluster Growth/Differentiation, probe 103202
  Fold change GBP3 (Guanylate binding protein): 0.63 fold
N38 hypothalmic cells; 1 nM TCAP-1, 16 hours, relative to untreated control, cluster Growth/Differentiation, probe 103441
  Fold change CAI1 (Casein kinase II): 0.61 fold
N38 hypothalmic cells; 1 nM TCAP-1, 16 hours, relative to untreated control, cluster Growth/Differentiation, probe 160298
  Fold change SSG1 (Steroid sensitive gene 1): 0.62 fold
N38 hypothalmic cells; 1 nM TCAP-1, 16 hours, relative to untreated control, cluster Growth/Differentiation, probe 160373
  Fold change SDPR (Serum deprivation response protein): 0.57 fold
N38 hypothalmic cells; 1 nM TCAP-1, 16 hours, relative to untreated control, cluster Growth/Differentiation, probe 160591
  Fold change ST7 (Suppressor of tumourigenicity): 1.97 fold
N38 hypothalmic cells; 1 nM TCAP-1, 16 hours, relative to untreated control, cluster Growth/Differentiation, probe 160802
  Fold change PPAN (Peter Pan homologue): 0.62 fold
N38 hypothalmic cells; 1 nM TCAP-1, 16 hours, relative to untreated control, cluster Growth/Differentiation, probe 161173
  Fold change P202 (202 interferon activatable protein): 0.61 fold
N38 hypothalmic cells; 1 nM TCAP-1, 16 hours, relative to untreated control, cluster Growth/Differentiation, probe 161931
  Fold change MKI67 (Cell cycle protein regulator): 1.70 fold
N38 hypothalmic cells; 1 nM TCAP-1, 16 hours, relative to untreated control, cluster Processing, probe 93492
  Fold change CLM2-B (Cytohesin-2): 0.63 fold
N38 hypothalmic cells; 1 nM TCAP-1, 16 hours, relative to untreated control, cluster Processing, probe 95156
  Fold change ARF1 (ADP ribosylation factor 1): 0.63 fold
N38 hypothalmic cells; 1 nM TCAP-1, 16 hours, relative to untreated control, cluster Processing, probe 99675
  Fold change YIPID (Rab-mediated membrane transport): 1.88 fold
N38 hypothalmic cells; 1 nM TCAP-1, 16 hours, relative to untreated control, cluster Processing, probe 100074
  Fold change GP25L2 (gp25L brings cargo forward from ER): 1.53 fold
N38 hypothalmic cells; 1 nM TCAP-1, 16 hours, relative to untreated control, cluster Processing, probe 104561
  Fold change AP4S1 (Adaptor related protein complex): 1.52 fold
N38 hypothalmic cells; 1 nM TCAP-1, 16 hours, relative to untreated control, cluster Processing, probe 160149
  Fold change RAB10 (Ras oncogene homologue): 1.62 fold
N38 hypothalmic cells; 1 nM TCAP-1, 16 hours, relative to untreated control, cluster Signalling/Communication, probe 92631
  Fold change CAMIII (Calmodulin III): 0.53 fold
N38 hypothalmic cells; 1 nM TCAP-1, 16 hours, relative to untreated control, cluster Signalling/Communication, probe 92754
  Fold change FNBX (Ferredoxin-NADP reductase): 1.61 fold
N38 hypothalmic cells; 1 nM TCAP-1, 16 hours, relative to untreated control, cluster Signalling/Communication, probe 92767
  Fold change ALK3 (Bone morphogenic protein receptor): 0.60 fold
N38 hypothalmic cells; 1 nM TCAP-1, 16 hours, relative to untreated control, cluster Signalling/Communication, probe 93456
  Fold change BMP4 (Bone morphogenic protein-4): 0.52 fold
N38 hypothalmic cells; 1 nM TCAP-1, 16 hours, relative to untreated control, cluster Signalling/Communication, probe 93914
  Fold change IL1R (Interleukin 1 receptor): 0.60 fold
N38 hypothalmic cells; 1 nM TCAP-1, 16 hours, relative to untreated control, cluster Signalling/Communication, probe 94465
  Fold change CLCN3 (Chloride channel protein 3): 1.66 fold
N38 hypothalmic cells; 1 nM TCAP-1, 16 hours, relative to untreated control, cluster Signalling/Communication, probe 95001
  Fold change AKAP95 (A kinase anchor protein 95): 0.60 fold
N38 hypothalmic cells; 1 nM TCAP-1, 16 hours, relative to untreated control, cluster Signalling/Communication, probe 98818
  Fold change GR (Glucocorticoid receptor): 0.66 fold
N38 hypothalmic cells; 1 nM TCAP-1, 16 hours, relative to untreated control, cluster Signalling/Communication, probe 100533
  Fold change CREMβ1 (cAMP-responsive element modulator): 1.61 fold
N38 hypothalmic cells; 1 nM TCAP-1, 16 hours, relative to untreated control, cluster Signalling/Communication, probe 100696
  Fold change PDE6A (cGMP Phosphodiesterase α): 1.68 fold
N38 hypothalmic cells; 1 nM TCAP-1, 16 hours, relative to untreated control, cluster Signalling/Communication, probe 101834
  Fold change ERK1 (Mitogen activated protein kinase): 0.64 fold
N38 hypothalmic cells; 1 nM TCAP-1, 16 hours, relative to untreated control, cluster Signalling/Communication, probe 104270
  Fold change BARK1 (β adrenorgic receptor kinase 1): 0.61 fold
N38 hypothalmic cells; 1 nM TCAP-1, 16 hours, relative to untreated control, cluster Signalling/Communication, probe 104420
  Fold change INOS (Inducible nitric oxide synthetase): 1.50 fold
N38 hypothalmic cells; 1 nM TCAP-1, 16 hours, relative to untreated control, cluster Signalling/Communication, probe 160976
  Fold change PCDHγ (protocadherin γ): 0.42 fold
N38 hypothalmic cells; 1 nM TCAP-1, 16 hours, relative to untreated control, cluster Signalling/Communication, probe 161019
  Fold change TTF-1IP (TTF-1 interacting peptide): 0.50 fold
N38 hypothalmic cells; 1 nM TCAP-1, 16 hours, relative to untreated control, cluster Signalling/Communication, probe 161088
  Fold change AKAP8 (A kinase anchor protein 8): 1.58 fold
N38 hypothalmic cells; 1 nM TCAP-1, 16 hours, relative to untreated control, cluster Signalling/Communication, probe 161695
  Fold change SLC6A4 (Serotonin transporter): 1.53 fold
N38 hypothalmic cells; [1]
  AKAP8 gene expression: upregulation
  AKAP95 gene expression: Downregulation
  CD95 gene expression: significant decrease
  EFK1 gene expression: down regulated
  GAS5 gene expression: significant decrease
  GDAP10 gene expression: upregulated
  MK167 gene expression: upregulated
  MOP3 gene expression: upregulated
  RGL gene expression: down regulated
  SDPR gene expression: significant decrease
  inducible nitric oxide (INOS) gene expression: upregulation
  intracellular voltage-gated chloride channel (CLCN3) gene expression: upregulation
  serotonin transporter (SLC6A4) gene expression: upregulation
N38 hypothalmic cells; [2]
  genes showing 1.5 fold down-regulation: 166
  genes showing up-regulation: 35

B1: leptin: leptin (recombinant mouse, Bachem Scientific) (protein, UniProt P41160 22-167, looked up)
Leptin: VPIQKVQDDTKTLIKTIVTRINDISHTQSVSAKQRVTGLDFIPGLHPILSLSKMDQTLAVYQQVLTSLPSQNVLQIANDLENLRDLLHLLAFSKSCSLPQTSGLQKPESLDGVLEASLYSTEVVALSRLQGSLQDILQQLDVSPEC
NPY-17 cells
  proteins altered by leptin treatment: approximately 250
